Source: the supplement of paper PMC4862054

system: Hs578T; test: normalised response (% of control), CellTiter-Glo; higher = more viable cells (100 = DMSO, 0 = benzethonium chloride kill control); conditions: incubation time: 72 h
Method: (§1)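 DSRT, 72 h incubation, CellTox Green / CellTiter-Glo readout. Signal is normalised to DMSO and benzethonium chloride controls. Value is the normalised response at the highest dose.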

With CC(C)N(CCCNC(=O)Nc1ccc(C(C)(C)C)cc1)C[C@H]1O[C@@H](n2cc(Br)c3c(N)ncnc32)[C@H](O)[C@@H]1O [SGC0946] (10000 nM) the normalised response was 101%.

system: BT-549; test: as above; conditions: incubation time: 72 h
Method: as §1

Going from CC/C(=C(\c1ccc(O)cc1)c1ccc(OCCN(C)C)cc1)c1ccccc1 [4-hydroxytamoxifen] (10000 nM) to Cc1cccc(-c2nn3c(c2-c2ccnc4ccc(C(N)=O)cc24)CCC3)n1 [Galunisertib] (1000 nM), the normalised response rises from 62.7% to 95.7%.

Going from O=S(=O)(c1cccc2cnccc12)N1CCCNCC1 [Fasudil] (50000 nM) to CC(C)N(CCCNC(=O)Nc1ccc(C(C)(C)C)cc1)C[C@H]1O[C@@H](n2cc(Br)c3c(N)ncnc32)[C@H](O)[C@@H]1O [SGC0946] (10000 nM), the normalised response rises from 78.9% to 92.3%.

system: SK-BR-3; test: as above; conditions: incubation time: 72 h
Method: as §1

Going from CC/C(=C(\c1ccc(O)cc1)c1ccc(OCCN(C)C)cc1)c1ccccc1 [4-hydroxytamoxifen] (10000 nM) to Cc1cccc(-c2nn3c(c2-c2ccnc4ccc(C(N)=O)cc24)CCC3)n1 [Galunisertib] (1000 nM), the normalised response rises from 49.8% to 116%.

Going from O=S(=O)(c1cccc2cnccc12)N1CCCNCC1 [Fasudil] (50000 nM) to CC(C)N(CCCNC(=O)Nc1ccc(C(C)(C)C)cc1)C[C@H]1O[C@@H](n2cc(Br)c3c(N)ncnc32)[C@H](O)[C@@H]1O [SGC0946] (10000 nM), the normalised response rises from 57% to 73.5%.

system: MCF-10A; test: as above; conditions: incubation time: 72 h
Method: as §1

Compared with CC/C(=C(\c1ccc(O)cc1)c1ccc(OCCN(C)C)cc1)c1ccccc1 [4-hydroxytamoxifen] (10000 nM), Cc1cccc(-c2nn3c(c2-c2ccnc4ccc(C(N)=O)cc24)CCC3)n1 [Galunisertib] (1000 nM) is higher in normalised response: 81.4% for the first, 90.8% for the second.

Compared with O=S(=O)(c1cccc2cnccc12)N1CCCNCC1 [Fasudil] (50000 nM), CC(C)N(CCCNC(=O)Nc1ccc(C(C)(C)C)cc1)C[C@H]1O[C@@H](n2cc(Br)c3c(N)ncnc32)[C@H](O)[C@@H]1O [SGC0946] (10000 nM) is higher in normalised response: 78.3% for the first, 101% for the second.

system: HCC1143; test: as above; conditions: incubation time: 72 h
Method: as §1

Compared with CC/C(=C(\c1ccc(O)cc1)c1ccc(OCCN(C)C)cc1)c1ccccc1 [4-hydroxytamoxifen] (10000 nM), Cc1cccc(-c2nn3c(c2-c2ccnc4ccc(C(N)=O)cc24)CCC3)n1 [Galunisertib] (1000 nM) is higher in normalised response: 88.6% for the first, 105% for the second.

Going from O=S(=O)(c1cccc2cnccc12)N1CCCNCC1 [Fasudil] (50000 nM) to CC(C)N(CCCNC(=O)Nc1ccc(C(C)(C)C)cc1)C[C@H]1O[C@@H](n2cc(Br)c3c(N)ncnc32)[C@H](O)[C@@H]1O [SGC0946] (10000 nM), the normalised response rises from 83.7% to 91.4%.

system: MDA-MB-468; test: as above; conditions: incubation time: 72 h
Method: as §1

Compared with CC/C(=C(\c1ccc(O)cc1)c1ccc(OCCN(C)C)cc1)c1ccccc1 [4-hydroxytamoxifen] (10000 nM), Cc1cccc(-c2nn3c(c2-c2ccnc4ccc(C(N)=O)cc24)CCC3)n1 [Galunisertib] (1000 nM) is higher in normalised response: 13.8% for the first, 101% for the second.

First: O=S(=O)(c1cccc2cnccc12)N1CCCNCC1 [Fasudil] (50000 nM)
Second: CC(C)N(CCCNC(=O)Nc1ccc(C(C)(C)C)cc1)C[C@H]1O[C@@H](n2cc(Br)c3c(N)ncnc32)[C@H](O)[C@@H]1O [SGC0946] (10000 nM)
The normalised response of the first is higher: 93.6% for the first, 70.7% for the second.

system: BT-474; test: as above; conditions: incubation time: 72 h
Method: as §1

Going from CC/C(=C(\c1ccc(O)cc1)c1ccc(OCCN(C)C)cc1)c1ccccc1 [4-hydroxytamoxifen] (10000 nM) to Cc1cccc(-c2nn3c(c2-c2ccnc4ccc(C(N)=O)cc24)CCC3)n1 [Galunisertib] (1000 nM), the normalised response rises from 63% to 99.6%.

Compared with O=S(=O)(c1cccc2cnccc12)N1CCCNCC1 [Fasudil] (50000 nM), CC(C)N(CCCNC(=O)Nc1ccc(C(C)(C)C)cc1)C[C@H]1O[C@@H](n2cc(Br)c3c(N)ncnc32)[C@H](O)[C@@H]1O [SGC0946] (10000 nM) is higher in normalised response: 67.5% for the first, 88.1% for the second.

system: CAL-51; test: as above; conditions: incubation time: 72 h
Method: as §1

Compared with CC/C(=C(\c1ccc(O)cc1)c1ccc(OCCN(C)C)cc1)c1ccccc1 [4-hydroxytamoxifen] (10000 nM), Cc1cccc(-c2nn3c(c2-c2ccnc4ccc(C(N)=O)cc24)CCC3)n1 [Galunisertib] (1000 nM) is higher in normalised response: 60.5% for the first, 91.8% for the second.

First: O=S(=O)(c1cccc2cnccc12)N1CCCNCC1 [Fasudil] (50000 nM)
Second: CC(C)N(CCCNC(=O)Nc1ccc(C(C)(C)C)cc1)C[C@H]1O[C@@H](n2cc(Br)c3c(N)ncnc32)[C@H](O)[C@@H]1O [SGC0946] (10000 nM)
The normalised response of the first is higher: 117% for the first, 94.1% for the second.

system: CAL-85-1; test: as above; conditions: incubation time: 72 h
Method: as §1

Going from CC/C(=C(\c1ccc(O)cc1)c1ccc(OCCN(C)C)cc1)c1ccccc1 [4-hydroxytamoxifen] (10000 nM) to Cc1cccc(-c2nn3c(c2-c2ccnc4ccc(C(N)=O)cc24)CCC3)n1 [Galunisertib] (1000 nM), the normalised response rises from 44.9% to 110%.

First: O=S(=O)(c1cccc2cnccc12)N1CCCNCC1 [Fasudil] (50000 nM)
Second: CC(C)N(CCCNC(=O)Nc1ccc(C(C)(C)C)cc1)C[C@H]1O[C@@H](n2cc(Br)c3c(N)ncnc32)[C@H](O)[C@@H]1O [SGC0946] (10000 nM)
The normalised response of the first is higher: 111% for the first, 83.1% for the second.

system: CAL-148; test: as above; conditions: incubation time: 72 h
Method: as §1

Compared with CC/C(=C(\c1ccc(O)cc1)c1ccc(OCCN(C)C)cc1)c1ccccc1 [4-hydroxytamoxifen] (10000 nM), Cc1cccc(-c2nn3c(c2-c2ccnc4ccc(C(N)=O)cc24)CCC3)n1 [Galunisertib] (1000 nM) is higher in normalised response: 85% for the first, 118% for the second.

Compared with O=S(=O)(c1cccc2cnccc12)N1CCCNCC1 [Fasudil] (50000 nM), CC(C)N(CCCNC(=O)Nc1ccc(C(C)(C)C)cc1)C[C@H]1O[C@@H](n2cc(Br)c3c(N)ncnc32)[C@H](O)[C@@H]1O [SGC0946] (10000 nM) is lower in normalised response: 96.3% for the first, 82.6% for the second.

system: HCC1599; test: as above; conditions: incubation time: 72 h
Method: as §1

First: CC/C(=C(\c1ccc(O)cc1)c1ccc(OCCN(C)C)cc1)c1ccccc1 [4-hydroxytamoxifen] (10000 nM)
Second: Cc1cccc(-c2nn3c(c2-c2ccnc4ccc(C(N)=O)cc24)CCC3)n1 [Galunisertib] (1000 nM)
The normalised response of the first is lower: 66.5% for the first, 108% for the second.

Compared with O=S(=O)(c1cccc2cnccc12)N1CCCNCC1 [Fasudil] (50000 nM), CC(C)N(CCCNC(=O)Nc1ccc(C(C)(C)C)cc1)C[C@H]1O[C@@H](n2cc(Br)c3c(N)ncnc32)[C@H](O)[C@@H]1O [SGC0946] (10000 nM) is lower in normalised response: 96.6% for the first, 78% for the second.

system: MDA-MB-453; test: as above; conditions: incubation time: 72 h
Method: as §1

First: CC/C(=C(\c1ccc(O)cc1)c1ccc(OCCN(C)C)cc1)c1ccccc1 [4-hydroxytamoxifen] (10000 nM)
Second: Cc1cccc(-c2nn3c(c2-c2ccnc4ccc(C(N)=O)cc24)CCC3)n1 [Galunisertib] (1000 nM)
The normalised response of the first is lower: 34.4% for the first, 106% for the second.

O=S(=O)(c1cccc2cnccc12)N1CCCNCC1 [Fasudil] (50000 nM) showed a normalised response of 79.6%.
